Experimental data as given in US5484793A, “Compounds derived from 6-azaindoles as ligands of the benzodiazepine receptor and medicaments containing them” (Centre National de la Recherche Scientifique (CNRS), priority 1991, dated 1996).
Like-named read-outs stand apart in the source and are kept apart here.

Experiments:
benzodiazepine receptor [1] = settings: in vitro; cited from earlier work
benzodiazepine receptor [2] = experiment: In vitro affinity for the benzodiazepine receptor on rat cortex membrane; type: binding
Procedure: A--In Vitro Tests on Cortex Membrane
The compounds of Examples 1 to 14 were tested on rat cortex membrane in order to determine their affinity for the benzodiazepine receptor.

[3] = system: GABA receptor/benzodiazepine receptor/chloride channel complexes; experiment: Electrophysiological test on Xenopus oocyte (injected with chicken optical lobe mRNA), pharmacological profile; type: cell-based; settings: for change of the potential difference (PD) of the oocyte: 10^-6 M, in 10^-5 M GABA bath; for pharmacological profile at the benzodiazepine receptor: Xenopus oocyte
Description: B--Pharmacological Property of the Compound of Example 1 Determination of the Pharmacological Profile
This study consists of an electrophysiological test on Xenopus oocyte. The cells of chicken optical lobes fortuitously have a good response to GABA. The total RNAs are extracted therefrom and passed through an oligo(dT) affinity column, thus making it possible to separate the crude messenger RNAs therefrom, because the latter have a poly(A) end tail which will combine by complementarity with the oligo(dT) residues of the column. These messenger RNAs will then be injected into a Xenopus oocyte, which is only a one and only cell. These oocytes will then be incubated and, in two days, the messenger RNAs will be expressed and will thus, by virtue of the cell machinery of the oocyte, have produced GABA receptor/benzodiazepine receptor/chloride channel complexes. These large protein entities will then migrate in the cell and will reach the membrane, thus making it possible for this receptor and the transmembrane ion channel which is combined with it to take its place.
The oocyte is then placed in a 10^-5 M GABA bath in Ringer solution and two microelectrodes A and B are introduced therein, a third microelectrode being placed outside the cell to act as reference. Microelectrode A will be used to measure the potential difference (PD) between the interior and the exterior of the oocyte. A PD of 60 mV is imposed on the oocyte and the microelectrode B will be used to maintain this desired PD.
By perfusing an agonist such as diazepam, the latter and the GABA present in the medium will exert an allosteric effect at the level of the receptor with, as corollary, opening of the ion channel. There will therefore be entry of chloride into the oocyte and the PD will greatly increase. On the other hand, an inverse agonist such as β-CCM will cause a reduction in the binding of the GABA to the receptor with, as consequence, a reduction in the time of opening of the chloride channel and a lower PD.
An antagonist will occupy the binding site of the benzodiazepine receptor but will have no effect on the binding of the GABA. The opening of the chloride channel will therefore not be disturbed and the PD will not vary.

[4] = system: mice belonging to the ABP/Le strain; experiment: In vivo convulsant properties in ABP/Le mice; set-up: species or system mouse; settings: 20 mg/kg intraperitoneally, 14 mice, observation after 30 minutes
Procedure: Compound 1 was tested first for its convulsant properties. The test was carried out on 14 mice (5 males and 9 females) aged two months belonging to the ABP/Le strain. This particular strain is very sensitive to convulsions induced by β-carbolines. Compound 1 was administered intraperitoneally at a dose of 20 mg/kg and observation took place after 30 minutes. […] The compound is therefore not convulsant.

female Swiss mice = experiment: Passive avoidance test with learning in a single test (memory); type: in vivo, mouse; settings: 20 mg/kg intraperitoneal
Procedure: Compound 1 was then tested on learning. This test, passive avoidance with learning in a single test, was carried out on 30 female Swiss mice aged two months. Compound 1 was administered to 15 mice at a dose of 20 mg/kg, the other 15 receiving an injection of physiological serum.
The equipment consists of a white box connected to a black box by a door. The white box is lit by a 100 W lamp placed at a distance of 25 cm and the black box, into which the mouse will spontaneously go because she feels safe in the darkness, contains an electrified metal floor. The boxes are coated with the smell of mice by an animal placed inside before each of the two series of 15 mice. […]
Ten minutes before learning, the marked mice receive an intraperitoneal injection of physiological serum or of Compound 1. […] The mice were then placed one by one in the illuminated white box and the arrival time in the black box is recorded. […]
After 24 hours, the avoidance test takes place: the mouse is placed in the white box and whether or not the mouse enters the black box in three minutes is recorded without any electrical shock being caused. If the mouse enters the black box in less than three minutes, the molecule tested has not improved the acquisition of the information "black box=electric shock" but if the time recorded is greater than three minutes, the molecule is assumed to have acted.

man = settings: cited from earlier work
benzodiazepine receptor [5] = settings: cited from earlier work
[6] = in vivo (anxiolytic, anticonvulsant, and the like); cited from earlier work
[7] = molecular target: central receptors of benzodiazepines; settings: in vitro, rat brain; read-out: IC50 at central benzodiazepine receptors; cited from earlier work
mice = settings: facilitating convulsions caused by other agents such as pentylenetetrazole; cited from earlier work
[8] = in vivo; cited from earlier work
[9] = in vivo; cited from earlier work; remark: listed apart in the source

For `CCOC(=O)c1cc2cc(C(=O)OCC)[nH]c2cn1` [2,5-dicarbethoxy-6-azaindole], the IC50 (benzodiazepine receptor [1]) is listed as 84 µM.
In the case of `COC(=O)c1cc2c(COCc3ccccc3)c[nH]c2cn1` [Example 1, Methyl 3-Benzyloxymethyl-6-Azaindole-5-Carboxylate], the IC50 (benzodiazepine receptor [2]) is reported as 0.75 µM, the “change of the potential difference (PD) of the oocyte” value (from here on “change of the potential difference”) [3] is reported as “slight reduction of the PD” and the “pharmacological profile at the benzodiazepine receptor” value [3] is reported as “partial inverse agonist”. For the same compound, the convulsions [4] was “None of the mice showed the least convulsion”, the “memory-enhancing effect during the passive avoidance test” value (female Swiss mice) was “memory-enhancing effect of the compound during the passive avoidance test with learning in a single test has therefore been revealed” and the “animals treated with the molecule that learnt to avoid the electric shock” value (female Swiss mice; 24 hours) was 75%.
Compound `COCc1c[nH]c2cnc(C(=O)OC)cc12` [Example 2] has an IC50 (benzodiazepine receptor [2]) of 1.5 µM.
In the case of `COC(=O)c1cc2c(COCc3ccccc3F)c[nH]c2cn1` [Example 3], the IC50 (benzodiazepine receptor [2]) is reported as 0.065 µM.
Work on `COC(=O)c1cc2c(COCc3cccc(F)c3)c[nH]c2cn1` [Example 4] yielded an IC50 (benzodiazepine receptor [2]) of 0.1 µM.
Work on `COC(=O)c1cc2c(COCc3ccc(F)cc3)c[nH]c2cn1` [Example 5] yielded an IC50 (benzodiazepine receptor [2]) of 0.075 µM.
With `COC(=O)c1cc2c(COCc3ccccc3[N+](=O)[O-])c[nH]c2cn1` [Example 6] the IC50 (benzodiazepine receptor [2]) was 1.2 µM.
`COC(=O)c1cc2c(COCc3cccc([N+](=O)[O-])c3)c[nH]c2cn1` [Example 7] gave an IC50 (benzodiazepine receptor [2]) of 1.3 µM.
With `COC(=O)c1cc2c(COCc3ccc([N+](=O)[O-])cc3)c[nH]c2cn1` [Example 8] the IC50 (benzodiazepine receptor [2]) was 0.3 µM.
Compound `COC(=O)c1cc2c(COCc3cccc(OC)c3)c[nH]c2cn1` [Example 9] has an IC50 (benzodiazepine receptor [2]) of 10 µM.
Work on `COC(=O)c1cc2c(COCCc3ccccc3)c[nH]c2cn1` [Example 10] yielded an IC50 (benzodiazepine receptor [2]) of 0.008 µM.
In the case of `COC(=O)c1cc2c(COCC=Cc3ccccc3)c[nH]c2cn1` [Example 11], the IC50 (benzodiazepine receptor [2]) is reported as 0.15 µM.
Compound `O=C(Nc1ccccc1C(=O)O)c1cc2cc[nH]c2cn1` [Example 12, 5-Phenylamido-6-Azaindole-2'-Carboxylic Acid] has an IC50 (benzodiazepine receptor [2]) of 0.3 µM.
With `O=C(Nc1ccccc1)c1cc2cc[nH]c2cn1` [Example 13] the IC50 (benzodiazepine receptor [2]) was 7 µM.
Work on `O=C(O)c1cccc(NC(=O)c2cc3cc[nH]c3cn2)c1` [Example 14] yielded an IC50 (benzodiazepine receptor [2]) of 5.5 µM.
Work on `O=C(O)c1ccc(NC(=O)c2cc3cc[nH]c3cn2)cc1` [Example 15] yielded an IC50 (benzodiazepine receptor [2]) of 2.3 µM.
For `CCOC(=O)c1ncn2c1CN(C)C(=O)c1cc(F)ccc1-2` [Flumazenil], the “memory-enhancing properties in man” value (man) is given as “memory-enhancing properties were revealed” and the “functional class at the benzodiazepine receptor” value (“functional class” for short) (benzodiazepine receptor [5]) is given as “antagonists of the benzodiazepine receptor”.
In the case of `CCOC(=O)c1ncc2[nH]c3cccc(OCc4ccccc4)c3c2c1COC` [ZK 91296], the “pharmacological profile at the benzodiazepine receptor” value [3] is listed as “partial agonist” and the “in vivo properties compared with diazepam” value [6] is listed as “properties analogous to those of diazepam in vivo (anxiolytic, anticonvulsant, and the like)”.
For `CCOC(=O)c1ncc2[nH]c3ccc(OCc4ccccc4)cc3c2c1COC` [ZK 93423], the “in vivo properties compared with diazepam” value [6] is listed as “properties analogous to those of diazepam in vivo (anxiolytic, anticonvulsant, and the like)”.
For `CCOC(=O)c1ncc2[nH]c3cccc(OC(C)C)c3c2c1C` [ZK 93426], the “memory-enhancing properties in man” value (man) is given as “memory-enhancing properties were revealed” and the “functional class” value (benzodiazepine receptor [5]) is given as “antagonists of the benzodiazepine receptor”.
With `CN1C(=O)CN=C(c2ccccc2)c2cc(Cl)ccc21` [diazepam] the “change of the potential difference” value [3] was “great increase”.
In the case of `CCOC(=O)c1cc2c(cn1)[nH]c1ccccc12` [β-CCE, ethyl ester of β-carboline-3-carboxylic acid], the IC50 [7] is given as 0.004 µM and the proconvulsant effect (mice) is given as “proconvulsant in mice”.
In the case of `COC(=O)c1cc2c(cn1)[nH]c1ccccc12` [β-CCM], the “change of the potential difference” value [3] is listed as “significant reduction”, the “effect on learning and memory” value [8] is listed as “positive effect on learning and memory” and the convulsant activity [9] is listed as “highly convulsant activity”. The “functional class” value (benzodiazepine receptor [5]) was “inverse agonists of the benzodiazepine receptor”.
